Laboratory results published in patent US8541362B2, “Cyclopropyl compounds and compositions for delivering active agents” (Emisphere Technologies, Inc., priority 2005, dated 2013).

How the values were obtained:
Assay type in all cases: in vivo, rat
Sprague Dawley rats [1] = test: Oral delivery of insulin in rats with delivery agent: change in blood glucose; conditions: 0.25 mg/kg insulin + 100 mg/kg delivery agent
Description: (§1) General anesthesia was induced in Sprague Dawley rats (250-350 gram) with 5% isoflurane in an anesthetic chamber, and the anesthesia was maintained with 2% isoflurane in 98% oxygen carrier gas up to the end of the study.
(§2) Jugular vein cannulation was carried out first for blood sampling by creating an incision just above the right clavicle. Using blunt forceps, the connective and adipose tissue were pushed aside and the jugular vein was exposed. The distal end of the exposed jugular vein was ligated, while its proximal end was strained to occlude the blood flow momentarily. A portion of the vessel near to the distal end was nipped, and the silicon catheter was inserted toward the proximal direction. After the catheter was tightened with a silk suture, the skin wound was closed with surgical staples.
(§3) The jejunum was prepared as follows: the proximal jejunum section was identified first. Plasma insulin and blood glucose levels were determined from a blood sample from the […] and used as a baseline.
(§4) The animal's abdominal cavity was opened. After the jejunum was identified, the part of the proximal segment was nipped with surgical scissors. A dosing tubing connected to a 1 ml syringe was introduced into the incised jejunum and carefully dosed. After dosing, the dosing tubing was removed. Then, a 2-cm polyethylene tubing was inserted into the jejunum so that the cut opening was located in the middle of the tubing. Both ends of the tube were tied with suture with the jejunum tissue to secure the jejunum, and, after the wound dried, a vet bond was applied over the top of the wound with a cotton swab. A 2 cm bridge tubing was placed to maintain the intestinal fluid flow intact.
(§5) After dosing and installation of the bridge, the exposed intestines were gently pushed back into place. The exposed wounds were covered with a wet gauge, and then with a paraffin film to prevent dehydration. Thereafter, blood samplings were performed at scheduled time-points.
(§6) Dose: 0.25 mg/kg Insulin, 100 mg/kg Delivery Agent, Concentration: 0.25 mg/ml, 100 mg/ml. Dose volume: 1 ml/kg.
(§7) Human recombinant insulin (ICN Biomedicals, Aurora, Ohio) was dissolved in deionized water (ph˜6.5) to obtain stock insulin solutions having a concentration of 15 mg/ml. 7-cyclopropylheptanoic acid was dissolved in deionized water to obtain a 200 mg/ml delivery agent solution. The free acid form of the delivery agent was converted to the sodium salt by adding one equivalent of sodium hydroxide. Solutions were vortexed, sonicated, and heated. If necessary, additional sodium hydroxide was added in μl quantities to achieve uniform solubility in the delivery agent solutions. Solutions were adjusted to a pH of 7.5-8.5 by the addition of either hydrochloric acid or sodium hydroxide, as appropriate. The insulin stock solution was then added to the delivery agent solutions to obtain an administration solution ultimately having an insulin concentration of 0.25 mg/ml. After solubilization and drug addition, administration solutions were brought to a final volume by the addition of deionized water.

[2] = Oral delivery of insulin in rats with delivery agent: serum insulin by ELISA; conditions: procedure of Example 2 (0.25 mg/kg insulin, 100 mg/kg delivery agent)
Description: as §1, §2, §3, §4, §5, §6, §7
The insulin assay was performed as follows. Concentrations of insulin were quantified in rat serum using a sandwich-type ELISA kit (Diagnostic Systems Laboratories, Inc., Webster, Tex.). Samples were collected into capiject tubes containing a clot activator (red top, serum separator tubes). Samples were allowed to clot for ˜20 minutes at 4° C. […]

Sprague Dawley rats [3] = test: Oral delivery of insulin in rats with delivery agent: change in blood glucose; conditions: delivery agent: insulin = 200 mg: 0.5 mg per Kg

For `O=C(O)CCCCCCC1CC1` [Compound 1, 7-cyclopropylheptanoic acid], the “Decrease of blood glucose (%) Average Value” (“Decrease … (%) Average Value” below) (Sprague Dawley rats [1]; time 0 min) was 0%, the “Decrease … (%) Average Value” (Sprague Dawley rats [1]; time 5 min) was −1.5% and the “Decrease … (%) Average Value” (Sprague Dawley rats [1]; time 10 min) was −15.3%. For the same molecule, the “Decrease … (%) Average Value” (Sprague Dawley rats [1]; time 20 min) was −32.9%, the “Decrease … (%) Average Value” (Sprague Dawley rats [1]; time 40 min) was −38.7% and the “Decrease … (%) Average Value” (Sprague Dawley rats [1]; time 60 min) was −36.6%. The “Decrease … (%) Average Value” (Sprague Dawley rats [1]; time 90 min) was −21.8%.
For `O=C(O)CCCCCCCCC(=O)NC1CC1` [Compound 9, 10-(cyclopropylamino)-10-oxodecanoic acid], the “Max Mean Cmax [uU/mL]” value [2] was 142.7 ± 62.7 uU/mL.
In the case of `COC(=O)CCCCCCC(=O)NC1CC1` [Compound 11], the “Max Mean Cmax [uU/mL]” value [2] was 84.93 ± 57.8 uU/mL.
In the case of `COC(=O)CCCCCCCCC(=O)NC1CC1` [Compound 12], the “Max Mean Cmax [uU/mL]” value [2] was 340.4 ± 191.3 uU/mL.
In the case of `O=C(O)CCCCCCC(=O)NCC1CC1` [Compound 13], the “% of Glucose Reduction from Control” value (Sprague Dawley rats [3]; time 0 min) was −0.862%, the “% of Glucose Reduction from Control” value (Sprague Dawley rats [3]; time 15 min) was −10.523% and the “% of Glucose Reduction from Control” value (Sprague Dawley rats [3]; time 30 min) was −20.866%. For the same molecule, the “% of Glucose Reduction from Control” value (Sprague Dawley rats [3]; time 45 min) was −28.011% and the “% of Glucose Reduction from Control” value (Sprague Dawley rats [3]; time 60 min) was −32.952%.
In the case of `COC(=O)CCCCCCC(=O)NCC1CC1` [Compound 14], the “Max Mean Cmax [uU/mL]” value [2] was 71.3 ± 35.2 uU/mL.
In the case of `O=C(O)CCCCCCCCC(=O)NCC1CC1` [Compound 15], the “Max Mean Cmax [uU/mL]” value [2] was 71.2 ± 33.7 uU/mL.
